The numbers were not newly measured in patent US10450317B2, “Notch pathway signaling inhibitor compounds” (Eli Lilly and Company, priority 2015, dated 2019), which cites them from elsewhere.

One data set concerns auditory hair cells. To be noted: middle ear delivery, mice with acoustic trauma; cited from earlier work.
For data set [1] the following is noted: systemic administration; cited from earlier work.

With `C[C@H](NC(=O)[C@@H](O)c1cc(F)cc(F)c1)C(=O)N[C@@H]1C(=O)N(C)c2ccccc2-c2ccccc21` [LY411575], the “hearing recovery by regeneration of auditory hair cells” value in the data set on auditory hair cells is listed as “significant, measurable, hearing recovery”. In addition, the toxicity entry in data set [1] is “Dose limiting toxicity was shown”.
